Patent US20260048072A1, “PHARMACEUTICAL PREPARATION FOR INTRANASAL ADMINISTRATION AND PREPARATION METHOD THEREFOR” (CHENGDU EASTON BIOPHARMACEUTICALS CO., LTD., priority 2023, published 2026)

Columns and labels:
Assay type in all cases: in vivo
Conditions in all cases: beagle dogs, nasal spray, result in words
[1] = Experimental Example 3: pharmacokinetic experiment, nalmefene in plasma by LC-MS/MS
Method: Beagle dogs (body weight of 8 kg-10 kg, supplier: Chengdu Dossy Experimental Animal Co., Ltd., license number: SCXK(1)2019-031)
(§1) • EDTA-K2 anticoagulant tube: brand Kangweishi (KWS) • Liquid chromatograph (Shimadzu, LC-30AD), mass spectrometer (SCIEX Triple Quad 4500) • LC-MS/MS detection conditions: • Instrument: UPLC-MS/MS (AB API 4500) • MS conditions: Electrospray ionization (ESI) source, positive ion detection
(§2) HPLC conditions: mobile phase A: 90% water+10% acetonitrile+0.1% formic acid+2 mM ammonium acetate; mobile phase B: 90% acetonitrile+10% water+0.1% formic acid+2 mM ammonium acetate; chromatographic column: Waters ACQUITY UPLC BEH C18 (2.1×50 mm, 1.7 μm); flow rate: 0.50 mL/min; chromatographic column temperature: 40° C.
(§3) Experimental method of nasal administration for Example 3: Four beagle dogs were administered with 1 dose of a nasal spray preparation of nalmefene hydrochloride by nasal spray respectively, and 2 mL of blood was collected from the forelimb vein before administration and at 2 min, 5 min, 10 min, 15 min, 30 min, 45 min, 1 h, 2 h, 4 h and 6 h after administration. The blood sample was placed in an EDTA-K2 anticoagulant tube, centrifuged at 4500 r/min for 10 min, and 50 μL of plasma was separated into a centrifuge tube. […] The content of nalmefene in the plasma was detected by LC-MS/MS. […]

[2] = Experimental Example 2: pharmacokinetic experiment, nalmefene in plasma by LC-MS/MS
Source text: Beagle dogs (body weight of 12 kg-15 kg, supplier: Suzhou Xishan Zhongke Experimental Animal Co., Ltd., license number: SCXK(Su)2018-0001)
• EDTA-K2 anticoagulant tube: brand Kangweishi (KWS) • Liquid chromatograph (Shimadzu, LC-30AD), mass spectrometer (SCIEX Triple Quad 4500) • LC-MS/MS detection conditions: • Instrument: UPLC-MS/MS (AB API 4500) • MS conditions: Electrospray ionization (ESI) source, positive ion detection […]
as §3, with “1:” for “3:”, “administration.” for “administration. The blood sample was placed in an EDTA-K2 anticoagulant tube, centrifuged at 4500 r/min for 10 min, and 50 μL of plasma was separated into a centrifuge tube.”
Experimental method of intramuscular injection for Comparative Example 2: Four beagle dogs were administered 1 dose of an injection of nalmefene hydrochloride (1.5 ml: 1.5 mg) intramuscularly respectively, and 2 mL of blood was collected from the forelimb vein before administration and at 2 min, 5 min, 10 min, 15 min, 30 min, 45 min, 1 h, 2 h, 4 h and 6 h after administration. […] The content of nalmefene in the plasma was detected by LC-MS/MS.

[3] = Experimental Example 4: pharmacokinetic experiment, nalmefene in plasma by LC-MS/MS
Source text: Beagle dogs (body weight of 8 kg-10 kg, supplier: Suzhou Xishan Zhongke Experimental Animal Co., Ltd. and Chengdu Dossy Experimental Animal Co., Ltd., license numbers: SCXK(Su)2018-0001 and SCXK(1)2019-031)
as §1, §2
as §3, with “9:” for “3:”, “administration.” for “administration. The blood sample was placed in an EDTA-K2 anticoagulant tube, centrifuged at 4500 r/min for 10 min, and 50 μL of plasma was separated into a centrifuge tube.”

effect to accelerate the absorption of nalmefene hydrochloride in the nasal cavity compared with n-dodecyl-β-D-maltoside [1]: superior
absorption of nalmefene hydrochloride in the nasal cavity, compared with not using dodecylphosphocholine [2]: significantly accelerate
effect to accelerate the absorption of nalmefene hydrochloride in the nasal cavity compared with n-dodecyl-β-D-maltoside [3]: superior
SMILES: CCCCCCCCCCCCOP(=O)([O-])OCC[N+](C)(C)C [dodecylphosphocholine, Dodecylphosphocholine]
